Results: ChEMBL document CHEMBL5727202, “Aryl acylsulfonamides as BLT1 antagonists” (2019)

Target: Leukotriene B4 receptor 1 (Homo sapiens, UniProt Q15722)
Test: BLT-1 cAMP Assay: The ability of compounds to antagonize the human BLT1 receptor was determined using a kit to measure changes in intracellular cyclic AMP levels (cAMP dynamic assay kit, Cisbio Cat. No. 62AM4PEC). HEK293 cells recombinantly expressing human BLT1 receptor, previously frozen in Recovery Medium (Life Technologies, Cat. No. 12648-010) were thawed and diluted into assay medium (HBSS (Hyclone SH 30268.01), 20 mM HEPES (Gibco 15630-106), 800 μM IBMX (Sigma I5879), 0.1% DTPA BSA (Perkin Elmer CR84-100)). The cell suspension was centrifuged at 200×g for 10 min and then resuspended in fresh assay medium to a density of 2.5×10^5 cells/mL. A Labcyte Echo 550 acoustic dispenser was used to transfer 25 nL of test compound dissolved in DMSO into the wells of a dry 384-well plate (Greiner 784075). All subsequent liquid additions were performed using a BIORAPTR (FRD; Beckman Coulter). Next, 5 μL of cell suspension was added and incubated for 20 min. at 37° C. and 5% CO2 in a humidified plastic tray. To test for agonist activity […] of assay buffer containing forskolin (Sigma F-6886. 4 μM for BLT1) was added and incubated for 30 minutes at 37° C. and 5% CO2 in a humidified plastic tray. To test for antagonist activity 5 μL of assay buffer containing forskolin (Sigma F-6886. 4 μM for BLT1) and either LTB4 (Sigma Aldrich L0517; 2 nM BLT1) was added and incubated for 30 minutes at 37° C. and 5% CO2 in a humidified plastic tray.The levels of cAMP were detected using the CisBio kit following the manufacturer's instructions: cAMP-d2 vial was reconstituted with distilled water and then diluted accordingly with conjugate & lysis buffer. 5 μL of cAMP-d2 working solution was added to all of the wells of the assay plate. cAMP-Cryptate vial was reconstituted with distilled water and then diluted accordingly with conjugate & lysis buffer. 5 μL of cAMP-Cryptate working solution were added to the assay plate. […]
Format: cell-based

Sequence of Leukotriene B4 receptor 1 (Q15722 whole entry): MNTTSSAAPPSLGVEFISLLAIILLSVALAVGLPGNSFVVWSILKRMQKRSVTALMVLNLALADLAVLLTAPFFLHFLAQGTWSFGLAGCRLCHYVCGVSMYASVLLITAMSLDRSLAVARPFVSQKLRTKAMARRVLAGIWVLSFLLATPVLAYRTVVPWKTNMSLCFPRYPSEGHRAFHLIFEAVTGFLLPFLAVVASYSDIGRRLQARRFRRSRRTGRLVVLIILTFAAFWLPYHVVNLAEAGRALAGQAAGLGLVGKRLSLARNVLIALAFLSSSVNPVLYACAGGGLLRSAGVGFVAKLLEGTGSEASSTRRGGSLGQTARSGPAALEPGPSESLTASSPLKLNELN

EC50 [µM]	Structure (SMILES)
0.538	CCn1nccc1C[C@@H]1COc2cc(-c3ccccc3C(=O)NS(=O)(=O)C3(C)CC3)ccc2[C@H]1O (racemic)
0.035	O=C(NS(=O)(=O)C(F)(F)F)c1ccc(F)cc1-c1ccc2c(c1)OC[C@H](Cc1ccc(-c3ccccc3)cc1)[C@H]2O (single isomer, unassigned)
0.06	CC1(S(=O)(=O)NC(=O)c2ccccc2-c2ccc3c(c2)OC[C@@H](Cc2coc(-c4ccccc4)n2)[C@@H]3O)CC1 (single isomer, unassigned)
